Assay results published in patent publication EP0103381B1, “Substituted anthra(1,9-cd)pyrazol-6(2H)-ones” (WARNER-LAMBERT COMPANY, priority 1982, dated 1984).

Legend:
[1] = system: L1210 Leukemia (CDF1); assay: broad spectrum antitumor activity in mice, L1210 leukemia; assay type: in vivo; conditions: IP/IP
From the text: (§1) Broad Spectrum Antitumor Activity^* of 2-[2-(Diethylamino)ethyl]-7,10-dihydroxy-5-[[2-[(2-hydroxyethyl)amino]ethyl]amino]anthra[1-9-cd]pyrazol-6(2H)-one Dihydrochloride in Mice

[2] = system: lymphocytic leukemia P388; assay: in vivo lymphocytic leukemia P388 test; set-up: species or system mice; conditions: Mus musculus, P388, ip, 720 h, two single doses four days apart, read-out: T/C × 100 (Percent)
Method in brief: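 Efficacy was judged from the treated/control survival-time ratio over 30 days (T/C×100 >125% as criterion). Mice (CD2F, 6–7/group) received i.p. P388 ascites cells, then compound i.p. at varied doses twice, four days apart.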

[3] = system: M5076 Ovary; assay: broad spectrum antitumor activity in mice, M5076 ovary; assay type: in vivo; conditions: IP/IP
From the text: as §1

[4] = system: B16 Melanoma (BDF1); assay: broad spectrum antitumor activity in mice, B16 melanoma (BDF1); assay type: in vivo; conditions: IP/IP
From the text: as §1

[5] = system: B16 Melanoma (B6C3F1); assay: broad spectrum antitumor activity in mice, B16 melanoma (B6C3F1); assay type: in vivo; conditions: I-/IP
From the text: as §1

[6] = system: Colon 38 (BDF1); assay: broad spectrum antitumor activity in mice, Colon 38; assay type: in vivo; conditions: SC/IP, Q01D × 09, Dose 16 mg/kg
From the text: as §1

[7] = system: Penicillium avellaneum; assay: agar plate paper-disc inhibition zone screening; assay type: cell-based; conditions: Hamigera avellanea; Dose 3.0 mg/ml; read-out: Inhibition Zone Diameter mm (Dose mg/ml) P. Avellaneum
Method in brief: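 Mycelia and spores from a six-day 28°C agar culture, suspended in saline with 0.05% Tween 80 at 20% transmittancy, were seeded into molten agar trays. Compounds at 3,000, 1,000, 500, 100 and 10 mcg/ml (solvent <10%) were applied on 12.7 mm paper discs. After at least 20-24 h incubation, inhibition zone diameter was measured in mm.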

[8] = system: Streptococcus faecalis; assay: agar plate paper-disc inhibition zone screening; assay type: cell-based; conditions: Enterococcus faecalis; Dose 1.0 mg/ml; read-out: Inhibition Zone Diameter mm (Dose mg/ml) S. Faecalis
Method in brief: (§2)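 Read-out: diameter (mm) of the inhibition zone around 12.7 mm paper discs after overnight (18-20 h) incubation at 37°C. Discs carried compound at 3,000-10 mcg/ml in alcohol, DMSO or DMF, final solvent <10%. Seeded agar trays used saline-suspended cells adjusted to 20-35% transmittancy.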

[9] = system: Aerobacter aerogenes; assay: agar plate paper-disc inhibition zone screening; assay type: cell-based; conditions: Klebsiella aerogenes; Dose 1.0 mg/ml; read-out: Inhibition Zone Diameter mm (Dose mg/ml) A. Aerogenes
Method in brief: as §2

[10] = system: Escherichia coli; assay: agar plate paper-disc inhibition zone screening; assay type: cell-based; conditions: Dose 0.5 mg/ml, read-out: Inhibition Zone Diameter mm (Dose mg/ml) E. Coli
Method in brief: as §2

[11] = system: Bacillus subtilis; assay: agar plate paper-disc inhibition zone screening; assay type: cell-based; conditions: Dose 1.0 mg/ml, read-out: Inhibition Zone Diameter mm (Dose mg/ml) B. Subtilis
Method in brief: as §2

[12] = system: ADJ—PC6 Plasmacytoma; assay: broad spectrum antitumor activity in mice, ADJ-PC6 plasmacytoma; assay type: in vivo; conditions: IP/IP
From the text: as §1

CCN(CC)CCn1nc2c3c(c(NCCNCCO)ccc31)C(=O)c1c(O)ccc(O)c1-2 [Example 28, 2-[2-(Diethylamino)ethyl]-7,10-dihydroxy-5-[[2-[(2-hydroxyethyl)amino]ethyl]amino]anthra[1,9-cd]pyrazol-6(2H)-one]
T/C × 100 (Percent) ([1]; Q01D × 09, Dose 1 mg/kg): 137%
T/C × 100 (Percent) ([1]; Q01D × 09, Dose 2 mg/kg): 144%
T/C × 100 (Percent) ([1]; Q01D × 09, Dose 4 mg/kg): 178%
T/C × 100 (Percent) ([1]; Q01D × 09, Dose 8 mg/kg): 240%
T/C × 100 (Percent) ([1]; Q01D × 09, Dose 16 mg/kg): 133%
response vs control in vivo at 0.78 mg/kg ([2]; P388, Dose 0.78 mg/kg intraperitoneally): 140%
response vs control in vivo at 1.56 mg/kg ([2]; P388, Dose 1.56 mg/kg intraperitoneally): 148%
response vs control in vivo at 3.12 mg/kg ([2]; P388, Dose 3.12 mg/kg intraperitoneally): 164%
response vs control in vivo at 6.25 mg/kg ([2]; P388, Dose 6.25 mg/kg intraperitoneally): 180%
T/C × 100 (Percent) ([3]; Q04D × 04, Dose 1.25 mg/kg): 143%
T/C × 100 (Percent) ([3]; Q04D × 04, Dose 2.5 mg/kg): 233%
T/C × 100 (Percent) ([3]; Q04D × 04, Dose 5 mg/kg): 186%
T/C × 100 (Percent) ([3]; Q04D × 04, Dose 10 mg/kg): 260%
T/C × 100 (Percent) ([4]; Q01D × 09, Dose 4 mg/kg): 151%
T/C × 100 (Percent) ([4]; Q01D × 09, Dose 8 mg/kg): 176%
T/C × 100 (Percent) ([5]; Q01D × 09, Dose 3 mg/kg): 148%
T/C × 100 (Percent) ([5]; Q01D × 09, Dose 6 mg/kg): 189%
% Tumor Reduction [6]: 71%
zone of inhibition at 3000 µg/mL [7]: 0 mm
zone of inhibition at 1000 µg/mL [8]: 14 mm
zone of inhibition at 1000 µg/mL [9]: 14 mm
zone of inhibition at 500 µg/mL [10]: 14 mm
zone of inhibition at 1000 µg/mL [11]: 15 mm
T/C × 100 (Percent) ([12]; Q04D × 03, Dose 2 mg/kg): 207%
T/C × 100 (Percent) ([12]; Q04D × 03, Dose 4 mg/kg): 216%
T/C × 100 (Percent) ([12]; Q04D × 03, Dose 8 mg/kg): 235%
T/C × 100 (Percent) ([12]; Q04D × 03, Dose 16 mg/kg): 163%
